Test results reported in patent US9790210B2, “N-(monocyclic aryl),N'-pyrazolyl-urea, thiourea, guanidine and cyanoguanidine compounds as TrkA kinase inhibitors” (Array BioPharma Inc., priority 2012, dated 2017).

Experiments:
Experiment in all cases: KinaseProfiler
Assay type in all cases: biochemical
Conditions in all cases: 10 μM, ATP near Km
CDK2/cyclinE = biological target: T1, CDK2/cyclinE (Homo sapiens, UniProt P24941)
T1 construct: purchased Millipore, Inc. (KinaseProfiler service)
Method: (§1) A representative compound (Example 15) of the invention was tested for off-target kinase activity at a concentration of 10 μM by Millipore, Inc. in their KinaseProfiler™ service against all the kinases available in their full kinase panel. The compound was run in duplicate at a concentration of ATP near the Km for each individual kinase according to Millipore's specifications. The results are shown in Table B. Data are reported as percent of control (POC) and are the average of the two replicates.

MST3 = biological target: T2, MST3 (Homo sapiens, UniProt Q9Y6E0)
T2 construct: purchased Millipore, Inc. (KinaseProfiler service)
Method: as §1

CAMK1 = biological target: T3, CAMK1 (Homo sapiens, UniProt Q14012)
T3 construct: purchased Millipore (KinaseProfiler service)
Method: as §1

ALK4 = biological target: T4, ALK4 (Homo sapiens, UniProt P36896)
T4 construct: purchased Millipore (KinaseProfiler service)
Method: as §1

p38beta = biological target: T5, p38beta (Homo sapiens, UniProt Q15759)
T5 construct: purchased Millipore, Inc. (KinaseProfiler service)
Method: as §1

Ros = biological target: T6, Ros (Homo sapiens, UniProt P08922)
T6 construct: purchased Millipore, Inc. (KinaseProfiler service)
Method: as §1

Fer = biological target: T7, Fer (Homo sapiens, UniProt P16591)
T7 construct: purchased Millipore, Inc. (KinaseProfiler service)
Method: as §1

CLK2 = biological target: T8, CLK2 (Homo sapiens, UniProt P49760)
T8 construct: purchased Millipore, Inc. (KinaseProfiler service)
T8 sequence (P49760 whole entry): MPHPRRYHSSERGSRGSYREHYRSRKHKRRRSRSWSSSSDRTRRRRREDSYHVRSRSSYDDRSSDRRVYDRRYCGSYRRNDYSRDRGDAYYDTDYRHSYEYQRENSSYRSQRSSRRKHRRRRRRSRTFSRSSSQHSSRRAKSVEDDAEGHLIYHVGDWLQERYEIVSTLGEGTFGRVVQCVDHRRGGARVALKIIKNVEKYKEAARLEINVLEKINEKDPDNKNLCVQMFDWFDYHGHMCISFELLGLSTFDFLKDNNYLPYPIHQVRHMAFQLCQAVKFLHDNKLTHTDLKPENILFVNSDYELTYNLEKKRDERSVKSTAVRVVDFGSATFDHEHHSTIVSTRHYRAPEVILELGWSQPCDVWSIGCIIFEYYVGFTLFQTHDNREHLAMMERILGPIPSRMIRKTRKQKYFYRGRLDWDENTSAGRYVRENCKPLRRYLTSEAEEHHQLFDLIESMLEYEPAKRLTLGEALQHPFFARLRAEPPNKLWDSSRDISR
Method: as §1

MAP3K5 = biological target: T9, MAP3K5 (Homo sapiens, UniProt Q99683)
T9 construct: purchased Millipore, Inc. (KinaseProfiler service)
Method: as §1

NEK11 = biological target: T10, NEK11 (Homo sapiens, UniProt Q8NG66)
T10 construct: purchased Millipore, Inc. (KinaseProfiler service)
Method: as §1

Flt1 = biological target: T11, Flt1 (Homo sapiens, UniProt P17948)
T11 construct: purchased Millipore, Inc. (KinaseProfiler service)
Method: as §1

CDK6/cyclinD3 = biological target: T12, CDK6/cyclinD3 (Homo sapiens, UniProt Q00534)
T12 construct: purchased Millipore, Inc. (KinaseProfiler service)
Method: as §1

MINK = biological target: T13, MINK (Homo sapiens, UniProt Q8N4C8)
T13 construct: purchased Millipore, Inc. (KinaseProfiler service)
T13 sequence (Q8N4C8 whole entry): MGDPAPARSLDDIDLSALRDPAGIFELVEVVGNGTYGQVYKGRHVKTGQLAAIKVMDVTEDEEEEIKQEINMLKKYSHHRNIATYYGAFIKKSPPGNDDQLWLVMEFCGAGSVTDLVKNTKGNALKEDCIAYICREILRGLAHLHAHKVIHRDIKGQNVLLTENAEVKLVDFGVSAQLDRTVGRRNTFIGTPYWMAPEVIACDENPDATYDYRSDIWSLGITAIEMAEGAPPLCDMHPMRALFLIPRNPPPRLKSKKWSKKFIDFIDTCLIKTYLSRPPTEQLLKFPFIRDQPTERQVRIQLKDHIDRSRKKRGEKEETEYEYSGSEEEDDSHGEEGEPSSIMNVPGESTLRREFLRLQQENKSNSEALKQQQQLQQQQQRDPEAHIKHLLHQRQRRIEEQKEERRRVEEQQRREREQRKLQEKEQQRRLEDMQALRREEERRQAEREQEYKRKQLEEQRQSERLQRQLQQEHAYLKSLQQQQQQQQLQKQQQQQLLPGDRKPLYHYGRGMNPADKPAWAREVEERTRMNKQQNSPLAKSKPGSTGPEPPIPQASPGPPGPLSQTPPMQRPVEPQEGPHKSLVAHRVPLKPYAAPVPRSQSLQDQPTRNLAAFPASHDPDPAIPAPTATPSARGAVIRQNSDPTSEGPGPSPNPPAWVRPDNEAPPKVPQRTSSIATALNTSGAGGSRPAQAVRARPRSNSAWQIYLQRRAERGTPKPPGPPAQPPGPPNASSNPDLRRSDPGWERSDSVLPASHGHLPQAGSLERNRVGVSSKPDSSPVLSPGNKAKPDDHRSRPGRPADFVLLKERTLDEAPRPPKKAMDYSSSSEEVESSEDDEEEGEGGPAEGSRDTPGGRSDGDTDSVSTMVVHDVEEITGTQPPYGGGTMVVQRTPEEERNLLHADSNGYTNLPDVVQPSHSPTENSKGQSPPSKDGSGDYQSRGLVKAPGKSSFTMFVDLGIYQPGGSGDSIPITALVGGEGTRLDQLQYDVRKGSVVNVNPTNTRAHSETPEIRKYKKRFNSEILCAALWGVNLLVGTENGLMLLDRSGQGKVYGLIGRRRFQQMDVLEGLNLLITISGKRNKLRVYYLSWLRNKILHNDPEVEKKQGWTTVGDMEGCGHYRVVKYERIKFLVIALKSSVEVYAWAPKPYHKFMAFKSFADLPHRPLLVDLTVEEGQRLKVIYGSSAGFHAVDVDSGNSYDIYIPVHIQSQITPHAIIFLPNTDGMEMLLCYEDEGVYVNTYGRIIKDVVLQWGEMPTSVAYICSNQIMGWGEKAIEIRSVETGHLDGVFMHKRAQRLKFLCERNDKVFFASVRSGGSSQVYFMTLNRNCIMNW
Method: as §1

PAK4 = biological target: T14, PAK4 (Homo sapiens, UniProt O96013)
T14 construct: purchased Millipore, Inc. (KinaseProfiler service)
Method: as §1

FAK2 = biological target: T15, FAK2 (Homo sapiens, UniProt Q14289)
T15 construct: purchased Millipore, Inc. (KinaseProfiler service)
Method: as §1

Abl-P = biological target: T16, Abl-P (Homo sapiens, UniProt P00519)
T16 construct: purchased Millipore (KinaseProfiler service)
Method: as §1

PKCbetaII = biological target: T17, PKCbetaII (Homo sapiens, UniProt P05771)
T17 construct: purchased Millipore, Inc. (KinaseProfiler service)
Method: as §1

Txk = biological target: T18, Txk (Homo sapiens, UniProt P42681)
T18 construct: purchased Millipore, Inc. (KinaseProfiler service)
Method: as §1

ERK1 = biological target: T19, ERK1 (Homo sapiens, UniProt P27361)
T19 construct: purchased Millipore, Inc. (KinaseProfiler service)
Method: as §1

MKK6 = biological target: T20, MKK6 (Homo sapiens, UniProt P52564)
T20 construct: purchased Millipore, Inc. (KinaseProfiler service)
Method: as §1

Flt4 = biological target: T21, Flt4 (Homo sapiens, UniProt P35916)
T21 construct: purchased Millipore, Inc. (KinaseProfiler service)
Method: as §1

CHK1 = biological target: T22, CHK1 (Homo sapiens, UniProt O14757)
T22 construct: purchased Millipore, Inc. (KinaseProfiler service)
Method: as §1

Yes = biological target: T23, Yes (Homo sapiens, UniProt P07947)
T23 construct: purchased Millipore, Inc. (KinaseProfiler service)
Method: as §1

PTK5 = biological target: T24, PTK5 (Homo sapiens, UniProt P42685)
T24 construct: purchased Millipore, Inc. (KinaseProfiler service)
Method: as §1

BTK = biological target: T25, BTK (Homo sapiens, UniProt Q06187)
T25 construct: purchased Millipore (KinaseProfiler service)
Method: as §1

PKCzeta = biological target: T26, PKCzeta (Homo sapiens, UniProt Q05513)
T26 construct: purchased Millipore, Inc. (KinaseProfiler service)
Method: as §1

Lyn = biological target: T27, Lyn (Homo sapiens, UniProt P07948)
T27 construct: purchased Millipore, Inc. (KinaseProfiler service)
T27 sequence (P07948 whole entry): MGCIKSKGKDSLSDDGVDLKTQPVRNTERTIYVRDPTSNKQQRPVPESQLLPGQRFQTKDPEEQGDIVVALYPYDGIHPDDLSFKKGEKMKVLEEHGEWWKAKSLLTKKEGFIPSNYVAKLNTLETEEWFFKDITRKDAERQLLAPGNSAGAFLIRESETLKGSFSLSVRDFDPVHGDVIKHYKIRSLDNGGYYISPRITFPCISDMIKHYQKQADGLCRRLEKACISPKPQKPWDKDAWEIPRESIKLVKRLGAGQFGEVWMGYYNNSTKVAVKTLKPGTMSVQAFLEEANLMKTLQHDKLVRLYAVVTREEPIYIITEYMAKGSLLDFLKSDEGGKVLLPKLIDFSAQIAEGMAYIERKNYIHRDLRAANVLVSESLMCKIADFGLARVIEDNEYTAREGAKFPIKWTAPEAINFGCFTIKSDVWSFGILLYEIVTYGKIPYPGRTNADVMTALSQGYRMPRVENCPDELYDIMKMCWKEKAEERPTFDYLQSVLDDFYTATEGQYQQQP
Method: as §1

PKCgamma = biological target: T28, PKCgamma (Homo sapiens, UniProt P05129)
T28 construct: purchased Millipore, Inc. (KinaseProfiler service)
Method: as §1

EphA7 = biological target: T29, EphA7 (Homo sapiens, UniProt Q15375)
T29 construct: purchased Millipore, Inc. (KinaseProfiler service)
T29 sequence (Q15375 28-998): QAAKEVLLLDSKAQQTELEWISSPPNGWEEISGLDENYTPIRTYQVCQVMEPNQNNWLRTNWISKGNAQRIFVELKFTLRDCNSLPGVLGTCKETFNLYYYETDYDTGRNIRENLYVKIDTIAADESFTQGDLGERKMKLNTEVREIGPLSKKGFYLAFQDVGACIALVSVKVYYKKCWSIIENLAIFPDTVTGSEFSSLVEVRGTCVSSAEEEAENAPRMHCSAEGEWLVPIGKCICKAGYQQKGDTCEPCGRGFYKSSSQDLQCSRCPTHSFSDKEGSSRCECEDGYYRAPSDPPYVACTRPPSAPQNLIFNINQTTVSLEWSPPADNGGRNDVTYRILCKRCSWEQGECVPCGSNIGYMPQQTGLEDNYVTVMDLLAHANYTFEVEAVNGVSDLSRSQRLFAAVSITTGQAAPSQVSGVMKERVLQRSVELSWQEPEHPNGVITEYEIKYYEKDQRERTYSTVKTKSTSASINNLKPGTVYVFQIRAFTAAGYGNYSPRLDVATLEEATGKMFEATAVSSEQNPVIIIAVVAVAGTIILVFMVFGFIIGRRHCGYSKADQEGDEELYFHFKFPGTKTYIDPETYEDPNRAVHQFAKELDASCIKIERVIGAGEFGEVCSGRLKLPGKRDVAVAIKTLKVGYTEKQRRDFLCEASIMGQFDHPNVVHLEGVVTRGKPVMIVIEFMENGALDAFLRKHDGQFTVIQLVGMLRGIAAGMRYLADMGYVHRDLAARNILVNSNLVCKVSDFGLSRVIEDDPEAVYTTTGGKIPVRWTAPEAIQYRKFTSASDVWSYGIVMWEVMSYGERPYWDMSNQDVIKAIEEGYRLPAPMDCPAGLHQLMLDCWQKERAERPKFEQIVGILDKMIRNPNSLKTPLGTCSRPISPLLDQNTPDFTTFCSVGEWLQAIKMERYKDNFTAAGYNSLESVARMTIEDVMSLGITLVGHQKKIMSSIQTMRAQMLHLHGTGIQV
Method: as §1

IKKbeta = biological target: T30, IKKbeta (Homo sapiens, UniProt O14920)
T30 construct: purchased Millipore, Inc. (KinaseProfiler service)
Method: as §1

SRC = biological target: T31, SRC (Homo sapiens, UniProt P12931)
T31 construct: purchased Millipore, Inc. (KinaseProfiler service)
Method: as §1

CK1_y = system: CK1_y
Method: as §1

CK1gamma3 = biological target: T32, CK1gamma3 (Homo sapiens, UniProt Q9Y6M4)
T32 construct: purchased Millipore, Inc. (KinaseProfiler service)
Method: as §1

ALK = biological target: T33, ALK (Homo sapiens, UniProt Q9UM73)
T33 construct: purchased Millipore (KinaseProfiler service)
Method: as §1

Mer = biological target: T34, Mer (Homo sapiens, UniProt Q12866)
T34 construct: purchased Millipore, Inc. (KinaseProfiler service)
Method: as §1

TAK1 = biological target: T35, TAK1 (Homo sapiens, UniProt O43318)
T35 construct: purchased Millipore, Inc. (KinaseProfiler service)
Method: as §1

EphB2 = biological target: T36, EphB2 (Homo sapiens, UniProt P29323)
T36 construct: purchased Millipore, Inc. (KinaseProfiler service)
T36 sequence (P29323 19-1055): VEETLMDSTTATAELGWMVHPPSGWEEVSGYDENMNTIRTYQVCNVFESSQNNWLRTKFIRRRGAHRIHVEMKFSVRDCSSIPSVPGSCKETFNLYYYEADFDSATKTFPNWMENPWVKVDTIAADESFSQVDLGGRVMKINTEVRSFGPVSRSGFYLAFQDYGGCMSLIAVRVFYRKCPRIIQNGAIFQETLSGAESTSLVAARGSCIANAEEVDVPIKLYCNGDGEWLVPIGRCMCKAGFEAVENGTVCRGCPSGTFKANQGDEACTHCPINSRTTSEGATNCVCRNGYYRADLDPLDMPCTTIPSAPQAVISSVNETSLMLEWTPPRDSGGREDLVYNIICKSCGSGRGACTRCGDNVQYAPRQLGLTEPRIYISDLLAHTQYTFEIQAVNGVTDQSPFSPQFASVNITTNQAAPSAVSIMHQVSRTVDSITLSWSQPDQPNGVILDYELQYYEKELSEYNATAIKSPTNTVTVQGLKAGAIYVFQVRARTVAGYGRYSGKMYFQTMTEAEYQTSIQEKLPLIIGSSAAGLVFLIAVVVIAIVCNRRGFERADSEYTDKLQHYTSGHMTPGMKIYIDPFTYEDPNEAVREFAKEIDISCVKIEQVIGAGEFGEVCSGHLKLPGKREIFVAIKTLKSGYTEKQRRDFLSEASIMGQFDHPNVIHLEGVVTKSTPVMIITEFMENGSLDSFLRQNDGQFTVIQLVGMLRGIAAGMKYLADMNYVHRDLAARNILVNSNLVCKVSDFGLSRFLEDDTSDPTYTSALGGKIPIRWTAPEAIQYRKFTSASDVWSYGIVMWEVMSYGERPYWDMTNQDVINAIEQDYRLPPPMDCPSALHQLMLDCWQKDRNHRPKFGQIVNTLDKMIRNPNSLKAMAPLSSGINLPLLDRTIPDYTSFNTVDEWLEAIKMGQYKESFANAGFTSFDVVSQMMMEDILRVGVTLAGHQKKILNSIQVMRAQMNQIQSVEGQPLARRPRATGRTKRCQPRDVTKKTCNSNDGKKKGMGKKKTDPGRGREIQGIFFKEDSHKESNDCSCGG
Method: as §1

AKT3 = biological target: T37, AKT3 (Homo sapiens, UniProt Q9Y243)
T37 construct: purchased Millipore (KinaseProfiler service)
Method: as §1

SGK3 = biological target: T38, SGK3 (Homo sapiens, UniProt Q96BR1)
T38 construct: purchased Millipore, Inc. (KinaseProfiler service)
Method: as §1

CDK3/cyclinE = biological target: T39, CDK3/cyclinE (Homo sapiens, UniProt Q00526)
T39 construct: purchased Millipore, Inc. (KinaseProfiler service)
Method: as §1

TSSK2 = biological target: T40, TSSK2 (Homo sapiens, UniProt Q96PF2)
T40 construct: purchased Millipore, Inc. (KinaseProfiler service)
Method: as §1

Question: Which “Avg POC” value (CDK2/cyclinE) does the source give for COCCCc1cc(Cl)c(Cl)cc1NC(=O)Nc1c(C)c(-c2cnn(C)c2)nn1-c1ccccc1 [Example 15, 1-(4,5-dichloro-2-(3-methoxypropyl)phenyl)-3-(1′,4-dimethyl-1-phenyl-1H,1′H-[3,4′-bipyrazol]-5-yl)urea] here?
Answer: Its value is 106.5 POC.

Question: And the “Avg POC” value (MST3)?
Answer: Its value is 137 POC.

Question: And the “Avg POC” value (CAMK1)?
Answer: Its value is 96 POC.

Question: What about the “Avg POC” value (ALK4) of the same compound?
Answer: The value was 113 POC.

Question: And the “Avg POC” value (p38beta)?
Answer: The value was 106.5 POC.

Question: What about the “Avg POC” value (Ros) of the same compound?
Answer: The value was 105.5 POC.

Question: And the “Avg POC” value (Fer)?
Answer: The value was 99 POC.

Question: What about the “Avg POC” value (CLK2) of the same compound?
Answer: Its value is 111.5 POC.

Question: What about the “Avg POC” value (MAP3K5) of the same compound?
Answer: The value was 105 POC.

Question: And the “Avg POC” value (NEK11)?
Answer: The value was 75 POC.

Question: And the “Avg POC” value (Flt1)?
Answer: The value was 97.5 POC.

Question: What about the “Avg POC” value (CDK6/cyclinD3) of the same compound?
Answer: Its value is 111 POC.

Question: What about the “Avg POC” value (MINK) of the same compound?
Answer: The value was 121.5 POC.

Question: And the “Avg POC” value (PAK4)?
Answer: Its value is 110.5 POC.

Question: And the “Avg POC” value (FAK2)?
Answer: The value was 102.5 POC.

Question: What about the “Avg POC” value (Abl-P) of the same compound?
Answer: Its value is 140.5 POC.

Question: And the “Avg POC” value (PKCbetaII)?
Answer: The value was 99 POC.

Question: What about the “Avg POC” value (Txk) of the same compound?
Answer: Its value is 135.5 POC.

Question: And the “Avg POC” value (ERK1)?
Answer: Its value is 103.5 POC.

Question: What about the “Avg POC” value (MKK6) of the same compound?
Answer: Its value is 124.5 POC.

Question: What about the “Avg POC” value (Flt4) of the same compound?
Answer: The value was 91 POC.

Question: And the “Avg POC” value (CHK1)?
Answer: The value was 118 POC.

Question: What about the “Avg POC” value (Yes) of the same compound?
Answer: Its value is 120.5 POC.

Question: And the “Avg POC” value (PTK5)?
Answer: The value was 102.5 POC.

Question: And the “Avg POC” value (BTK)?
Answer: Its value is 119.5 POC.

Question: What about the “Avg POC” value (PKCzeta) of the same compound?
Answer: Its value is 103 POC.

Question: What about the “Avg POC” value (Lyn) of the same compound?
Answer: The value was 84.5 POC.

Question: What about the “Avg POC” value (PKCgamma) of the same compound?
Answer: The value was 99.5 POC.

Question: And the “Avg POC” value (EphA7)?
Answer: The value was 103 POC.

Question: And the “Avg POC” value (IKKbeta)?
Answer: Its value is 113.5 POC.

Question: What about the “Avg POC” value (SRC) of the same compound?
Answer: Its value is 90 POC.

Question: What about the “Avg POC” value (CK1_y) of the same compound?
Answer: Its value is 96.5 POC.

Question: What about the “Avg POC” value (CK1gamma3) of the same compound?
Answer: The value was 112.5 POC.

Question: And the “Avg POC” value (ALK)?
Answer: Its value is 105 POC.

Question: What about the “Avg POC” value (Mer) of the same compound?
Answer: Its value is 97.5 POC.

Question: And the “Avg POC” value (TAK1)?
Answer: Its value is 95 POC.

Question: And the “Avg POC” value (EphB2)?
Answer: The value was 112.5 POC.

Question: And the “Avg POC” value (AKT3)?
Answer: The value was 119.5 POC.

Question: And the “Avg POC” value (SGK3)?
Answer: The value was 132 POC.

Question: What about the “Avg POC” value (CDK3/cyclinE) of the same compound?
Answer: Its value is 101 POC.

Question: And the “Avg POC” value (TSSK2)?
Answer: Its value is 114.5 POC.
